Like-named read-outs stand apart in the source and are kept apart here.
Columns and labels:
Assay type in all cases: cell-based, Plasmodium falciparum
P. falciparum Dd2 = assay: SYBR green I asexual blood stage proliferation assay (96 h); details: Plasmodium falciparum, DD2, 11-pt dose response, 96hr
[1] = system: P. falciparum (NF54) stage V gametocytes; assay: Stage V gametocyte viability assay (MitoTracker Red CMXRos high content imaging); details: for inhibition at 2 µM: read-out: Stg V Gam primary screen: Inhibition % (2uM) (n=2)
[2] = system: P. falciparum Dd2 (PfLuc) line expressing firefly luciferase, asexual blood stage; assay: microbe, parasite or virus in culture; details: Plasmodium falciparum
[3] = Sybr Green I, read-out: CDD P. falciparum Sybr Green I ABS 11-pt Reconfirmation Dose Response (96hr): IC50
[4] = Sybr Green I, read-out: CDD P. falciparum Sybr Green I ABS 11-pt Reconfirmation Dose Response (96hr): Maximum inhibition (%)
[5] = Plasmodium falciparum, NF54, 72 h, read-out: Stg V Gam dose response IC50 (µM) (n=3), 10-point dose response, n=3, 72 h
[6] = DD2, read-out: CDD P. falciparum Luciferase ABS 11-pt Reconfirmation Dose Response (48hr): IC50 (μM), 11-pt dose response, 48hr
[7] = DD2, 8-pt dose response, 96hr, read-out: CDD P. falciparum Luciferase ABS 8-pt Reconfirmation Dose Response (96hr): IC50
[8] = DD2, 8-pt dose response, 96hr, read-out: CDD P. falciparum Luciferase ABS 8-pt Reconfirmation Dose Response (96hr): Maximum inhibition (%)
[9] = DD2, 11-pt dose response, 96hr, read-out: CDD P. falciparum Luciferase ABS 11-pt Reconfirmation Dose Response (96hr): IC50
[10] = DD2, 11-pt dose response, 96hr, read-out: CDD P. falciparum Luciferase ABS 11-pt Reconfirmation Dose Response (96hr): Maximum inhibition (%)
[11] = Plasmodium falciparum, NF54, 72 h
[12] = DD2, 11-pt dose response, 48hr, read-out: CDD P. falciparum Luciferase ABS 11-pt Reconfirmation Dose Response (48hr): Maximum inhibition (%)
[13] = Plasmodium falciparum, NF54, 72 h, read-out: GAM V IC50, stage V gametocytes, 72 h
[14] = read-out: P. falciparum Sybr Green I ABS 11-pt Reconfirmation Dose Response (96hr): IC50
[15] = read-out: P. falciparum Sybr Green I ABS 11-pt Reconfirmation Dose Response (96hr): Maximum inhibition (%)
[16] = DD2, read-out: P. falciparum Luciferase ABS 11-pt Reconfirmation Dose Response (48hr): IC50, 11-pt dose response, 48hr
[17] = DD2, 8-pt dose response, 96hr, read-out: P. falciparum Luciferase ABS 8-pt Reconfirmation Dose Response (96hr): IC50
[18] = DD2, 8-pt dose response, 96hr, read-out: P. falciparum Luciferase ABS 8-pt Reconfirmation Dose Response (96hr): Maximum inhibition (%)
[19] = DD2, 11-pt dose response, 48hr, read-out: P. falciparum Luciferase ABS 11-pt Reconfirmation Dose Response (48hr): Maximum inhibition (%)
[20] = DD2, 11-pt dose response, 96hr, read-out: P. falciparum Luciferase ABS 11-pt Reconfirmation Dose Response (96hr): IC50
[21] = DD2, 11-pt dose response, 96hr, read-out: P. falciparum Luciferase ABS 11-pt Reconfirmation Dose Response (96hr): Maximum inhibition (%)

Row | Structure (SMILES) | IC50 (P. falciparum Dd2; [3]) [nM] | Emax (P. falciparum Dd2; [4]) [%] | IC50 [1, 5] [µM] | IC50 [2, 6] [µM] | IC50 [2, 7] [µM] | Emax [2, 8] [%] | IC50 [2, 9] [µM] | Emax [2, 10] [%] | inhibition at 2 µM [1, 11] [%] | Emax [2, 12] [%] | IC50 [1, 13] [µM] | IC50 [2, 17] [µM] | further results
1 | NC(=O)c1cccc2nc([C@H]3CCN(Cc4ccccn4)C3)[nH]c12 [DDD01025389, NC(=O)C1=C2NC(=NC2=CC=C1)[C@H]1CCN(CC2=CC=CC=N2)C1] | 80.7 | 86.6 | 0.125 | 0.058 | 0.0339 | 98.4 | 0.0101 | 101 | – | – | – | – | –
2 | COc1ccc(NC(=O)Cn2nc(C)c(C(C)=O)c2C)cc1 [DDD01027600, COC1=CC=C(NC(=O)CN2N=C(C)C(C(C)=O)=C2C)C=C1] | 4580 | – | 3.74 | 1.9 | 0.49 | 92.8 | 1.45 | 92.8 | 53.5 | 87 | – | – | –
3 | COc1ccc(-c2c(C)nn3c(=N)c(C#N)n[nH]c23)cc1OC [DDD01035187, COC1=CC=C(C=C1OC)C1=C2N=NC(C#N)=C(N)N2N=C1C] | 5980 | 90.8 | 8.2 | 1.18 | 0.57 | 93 | 0.841 | 98.5 | 61.6 | 95.8 | – | – | –
4 | Cc1cccc(CN2CCCC2c2cccc(Nc3nccs3)n2)c1 (stereo not drawn) [DDD01057018, CC1=CC=CC(CN2CCCC2C2=CC=CC(NC3=NC=CS3)=N2)=C1] | – | – | 0.115 | 0.914 | 1.04 | 94.6 | 0.53 | 101 | 90.4 | 93.5 | 0.12 | – | –
5 | Cc1nn(C)cc1C1=NS(=O)(=O)N(C)C(C(=O)Nc2ccc(Br)cc2)=C1 [DDD01058697, CN1C=C(C(C)=N1)C1=NS(=O)(=O)N(C)C(=C1)C(=O)NC1=CC=C(Br)C=C1] | 321 | 99.9 | – | 0.55 | 0.2 | 95.2 | 0.281 | 101 | – | 99.4 | – | – | IC50 ([1]; Plasmodium falciparum, NF54, read-out: Stg V Gam dose response IC50 (µM) (n=3), 10-point dose response, n=3, 72 h): 2.78 µM; inhibition at 2 µM ([1]; Plasmodium falciparum, NF54, Table S6, 2uM, n=2, 72 h): 53.2%
6 | COc1ccc(C)cc1CN1CCC(c2cc3ncccc3cn2)CC1 [DDD01058767, COC1=CC=C(C)C=C1CN1CCC(CC1)C1=NC=C2C=CC=NC2=C1] | 136 | 101 | 2.51 | 0.0507 | 0.25 | 96.3 | 0.0439 | 100 | 85.5 | 98.5 | – | – | –
7 | CC(C)(C)c1cn2c(n1)C(CNCc1ccccn1)CCC2 (stereo not drawn) [DDD01062588, CC(C)(C)C1=CN2CCCC(CNCC3=CC=CC=N3)C2=N1] | – | – | 0.069 | – | – | – | – | – | 86.8 | – | 0.07 | 1.44 | IC50 (P. falciparum Dd2; [14]): 1720 nM; Emax (P. falciparum Dd2; [15]): 87.3%; IC50 [2, 16]: 2.9 µM; Emax [2, 18]: 91.5%; Emax [2, 19]: 90.4%; IC50 [2, 20]: 1.41 µM; Emax [2, 21]: 98.6%
8 | Fc1cccc(C(NCc2ncc[nH]2)c2ccccn2)c1 (stereo not drawn) [DDD01064153, FC1=CC=CC(=C1)C(NCC1=NC=CN1)C1=CC=CC=N1] | 5580 | 82.6 | 1.55 | 5.61 | 0.45 | – | 0.644 | 97.4 | 63.2 | 86.1 | 1.55 | – | –
9 | Clc1cccc(C(NCc2ncc[nH]2)c2ccccn2)c1 (stereo not drawn) [DDD01064155, ClC1=CC=CC(=C1)C(NCC1=NC=CN1)C1=CC=CC=N1] | 3750 | 88.1 | 2.06 | 1.99 | 0.27 | 94.2 | 0.408 | 98.7 | 59.1 | 94.1 | 2.06 | – | –
10 | CN(CCc1cccc2ccccc12)Cc1nc(N)nc(N(C)C)n1 [DDD01076782, CN(CCC1=C2C=CC=CC2=CC=C1)CC1=NC(N)=NC(=N1)N(C)C] | – | – | 3.99 | – | – | – | – | – | 74.3 | – | – | 1.67 | –
11 | CNc1cc(C)nc(NC2CCCN(C3Cc4ccccc4C3)C2)n1 (stereo not drawn) [DDD01243506, CNC1=CC(C)=NC(NC2CCCN(C2)C2CC3=CC=CC=C3C2)=N1] | – | – | 2.91 | – | – | – | – | – | 62.9 | – | – | 1.33 | IC50 (P. falciparum Dd2; [14]): 957 nM; Emax (P. falciparum Dd2; [15]): 96.1%; IC50 [2, 16]: 1.16 µM; Emax [2, 19]: 94.3%; IC50 [2, 20]: 0.707 µM; Emax [2, 21]: 100%
12 | CN(Cc1ccsc1)c1nc(-c2ccccn2)nc2c1CCNCC2 [DDD01243664, CN(CC1=CSC=C1)C1=NC(=NC2=C1CCNCC2)C1=CC=CC=N1] | 872 | 78.7 | 0.732 | 0.752 | 0.52 | 95.1 | 0.299 | 98.7 | 95.1 | 89.8 | 0.73 | – | IC50 ([1]; read-out: GAM V IC50, stage V gametocytes, 72 h): < 1 µM; IC50 ([2]; DD2, asexual blood stage, assay format not given, read-out: ABS IC50): < 1 µM
13 | CSc1ccc(-c2nc(CN3CCC(CN)C3)c(C)o2)cc1 (stereo not drawn) [DDD01250168, CSC1=CC=C(C=C1)C1=NC(CN2CCC(CN)C2)=C(C)O1] | – | – | 2.42 | – | – | – | – | – | 63 | – | – | 1.6 | Emax [2, 18]: 93.1%
14 | CCN(CCN(C)C)c1nc(CCN)nc2sc(C)c(C)c12 [DDD01251823, CCN(CCN(C)C)C1=C2C(C)=C(C)SC2=NC(CCN)=N1] | – | – | 4.42 | – | – | – | – | – | 58.8 | – | – | 1.8 | Emax [2, 18]: 92.8%
15 | Cc1ccc(-c2nc(CNC(C)CCO)[nH]c2-c2ccccn2)cc1 (stereo not drawn) [DDD01253542, CC(CCO)NCC1=NC(=C(N1)C1=CC=C(C)C=C1)C1=CC=CC=N1] | – | – | 1.09 | – | – | – | – | – | 70.9 | – | 1.09 | 1.81 | –
16 | Cc1cc(CN(C)c2nc(-c3ccccn3)nc3c2CCNCC3)n[nH]1 [DDD01255965, CN(CC1=CC(C)=NN1)C1=NC(=NC2=C1CCNCC2)C1=CC=CC=N1] | – | – | 0.875 | – | – | – | – | – | 61.9 | – | 0.88 | – | IC50 ([2]; 96 h incubation, Dd2 luciferase, read-out: 96 hour Pfluc IC50): > 10 µM

Reference: publication PMC7155171, “Probing the Open Global Health Chemical Diversity Library for Multistage-Active Starting Points for Next-Generation Antimalarials” (ACS Infectious Diseases, 2020)
